Test results as given in US6355799B1, “Substituted benzene compounds, process for their preparation, and herbicidal and defoliant compositions containing them” (ISK Americas Incorporated, priority 1997, dated 2002).

Columns and labels:
Type in all cases: in vivo
[1] = system: redroot pigweed (Amaranthus retroflexus, AMARE); assay: Post-emerge test, greenhouse herbicide activity screening; conditions: post-emerge; for Post-emerge Herbicidal Activity AMARE: phytotoxicity rating 0-100 at 14 days after application; for AMARE phytotoxicity rating: 14 days after application, rating scale 0-100
In short: (§1)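 Rating: 0–100 visual injury, 14 DAA. Application: acetone, 187 l/ha, 15–1000 g ai/ha, flat-fan track sprayer with nozzle 40–45 cm above soil or canopy. Post-emerge runs used 0.25% v/v surfactant on 2–3 leaf plants.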

[2] = system: barnyardgrass (Echinochloa crus-galli, ECHCG); assay: as above; conditions: post-emerge; for Post-emerge Herbicidal Activity ECHCG: phytotoxicity rating 0-100 at 14 days after application; for ECHCG phytotoxicity rating: 14 days after application, rating scale 0-100
In short: as §1

[3] = system: velvetleaf (Abutilon theophrasti, ABUTH); assay: as above; conditions: post-emerge; for Post-emerge Herbicidal Activity ABUTH: phytotoxicity rating 0-100 at 14 days after application; for ABUTH phytotoxicity rating: 14 days after application, rating scale 0-100
In short: as §1

[4] = system: sicklepod (Cassia obtusifolia, CASOB); assay: as above; conditions: post-emerge; for Post-emerge Herbicidal Activity CASOB: phytotoxicity rating 0-100 at 14 days after application; for CASOB phytotoxicity rating: 14 days after application, rating scale 0-100
In short: as §1

[5] = system: large crabgrass (Digitaria sanguinalis, DIGSA); assay: as above; conditions: post-emerge; for Post-emerge Herbicidal Activity DIGSA: phytotoxicity rating 0-100 at 14 days after application; for DIGSA phytotoxicity rating: 14 days after application, rating scale 0-100
In short: as §1

[6] = system: ivyleaf morningglory (Ipomoea hederacea, IPOHE); assay: as above; conditions: post-emerge; for Post-emerge Herbicidal Activity IPOHE: phytotoxicity rating 0-100 at 14 days after application; for IPOHE phytotoxicity rating: 14 days after application, rating scale 0-100
In short: as §1

[7] = system: green foxtail (Setaria viridis, SETVI); assay: as above; conditions: post-emerge; for Post-emerge Herbicidal Activity SETVI: phytotoxicity rating 0-100 at 14 days after application; for SETVI phytotoxicity rating: 14 days after application, rating scale 0-100
In short: as §1

[8] = system: lambsquarters (Chenopodium album, CHEAL); assay: as above; conditions: post-emerge; for Post-emerge Herbicidal Activity CHEAL: phytotoxicity rating 0-100 at 14 days after application; for CHEAL phytotoxicity rating: 14 days after application, rating scale 0-100
In short: as §1

[9] = system: barnyardgrass (Echinochloa crus-galli, ECHCG); assay: Pre-emerge test, greenhouse herbicide activity screening; conditions: pre-emerge; for Pre-emerge Herbicidal Activity ECHCG: phytotoxicity rating 0-100 at 14 days after application; for phytotoxicity rating ECHCG: 14 days after application, scale 0-100
In short: (§2)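 Compounds in acetone were track-sprayed at 15–1000 g ai/ha: pre-emergence onto soil sown the previous day, then top-watered to incorporate and later bottom-watered; post-emergence onto 2–3 leaf plants with 0.25% v/v surfactant, bottom-watered only. Ratings on a 0–100 phytotoxicity scale were taken at day 14.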

[10] = system: johnsongrass (Sorghum halepense, SORHA); assay: as above; conditions: pre-emerge; for Pre-emerge Herbicidal Activity SORHA: phytotoxicity rating 0-100 at 14 days after application; for phytotoxicity rating SORHA: 14 days after application, scale 0-100
In short: as §2

[11] = system: velvetleaf (Abutilon theophrasti, ABUTH); assay: as above; conditions: pre-emerge; for Pre-emerge Herbicidal Activity ABUTH: phytotoxicity rating 0-100 at 14 days after application; for phytotoxicity rating ABUTH: 14 days after application, scale 0-100
In short: as §2

[12] = system: sicklepod (Cassia obtusifolia, CASOB); assay: as above; conditions: pre-emerge; for Pre-emerge Herbicidal Activity CASOB: phytotoxicity rating 0-100 at 14 days after application; for phytotoxicity rating CASOB: 14 days after application, scale 0-100
In short: as §2

[13] = system: large crabgrass (Digitaria sanguinalis, DIGSA); assay: as above; conditions: pre-emerge; for Pre-emerge Herbicidal Activity DIGSA: phytotoxicity rating 0-100 at 14 days after application; for phytotoxicity rating DIGSA: 14 days after application, scale 0-100
In short: as §2

[14] = system: ivyleaf morningglory (Ipomoea hederacea, IPOHE); assay: as above; conditions: pre-emerge; for Pre-emerge Herbicidal Activity IPOHE: phytotoxicity rating 0-100 at 14 days after application; for phytotoxicity rating IPOHE: 14 days after application, scale 0-100
In short: as §2

[15] = system: green foxtail (Setaria viridis, SETVI); assay: as above; conditions: pre-emerge; for Pre-emerge Herbicidal Activity SETVI: phytotoxicity rating 0-100 at 14 days after application; for phytotoxicity rating SETVI: 14 days after application, scale 0-100
In short: as §2

[16] = system: lambsquarters (Chenopodium album, CHEAL); assay: as above; conditions: pre-emerge; for Pre-emerge Herbicidal Activity CHEAL: phytotoxicity rating 0-100 at 14 days after application; for phytotoxicity rating CHEAL: 14 days after application, scale 0-100
In short: as §2

[17] = system: field corn (Zea mays L., var. Dekalb 535, CORN); assay: Pre-emerge test, crop safety; conditions: pre-emerge; for Pre-emerge Herbicidal Activity CORN: crop damage, phytotoxicity rating 0-100 at 14 days after application; for phytotoxicity rating CORN (crop damage): 14 days after application, scale 0-100
In short: (§3)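 Plants grown in 10 cm pots of sandy loam mix received acetone-dissolved compounds through a moving flat-fan nozzle. Doses ranged from 15 to 1000 g ai/ha. Pre-emerge pots were seeded one day earlier, post-emerge pots 8–21 days earlier. Fourteen days on, each pot was graded 0–100 for damage.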

[18] = system: upland rice (Oryza sp., var. Tebonnet, RICE); assay: Pre-emerge test, crop safety; conditions: pre-emerge; for Pre-emerge Herbicidal Activity RICE: crop damage, phytotoxicity rating 0-100 at 14 days after application; for phytotoxicity rating RICE (crop damage): 14 days after application, scale 0-100
In short: as §3

[19] = system: redroot pigweed (Amaranthus retroflexus, AMARE); assay: Pre-emerge test, greenhouse herbicide activity screening; conditions: pre-emerge; for Pre-emerge Herbicidal Activity AMARE: phytotoxicity rating 0-100 at 14 days after application; for phytotoxicity rating AMARE: 14 days after application, scale 0-100
In short: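 Compounds in acetone were track-sprayed at 187 l/ha, 15–1000 g ai/ha, onto sandy loam pots. Pre-emerge seeds were sown one day before spraying, with surface watering afterwards. Post-emerge plants were at the 2–3 leaf stage and sprayed with 0.25% v/v non-ionic surfactant. Injury was rated 0–100 at 14 days.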

[20] = system: field corn (Zea mays L., var. Dekalb 535, CORN); assay: Post-emerge test, crop safety; conditions: post-emerge; for Post-emerge Herbicidal Activity CORN: crop damage rating 0-100 at 14 days after application; for CORN phytotoxicity rating (crop damage): 14 days after application, rating scale 0-100
In short: as §1

[21] = system: upland rice (Oryza sp., var. Tebonnet, RICE); assay: Post-emerge test, crop safety; conditions: post-emerge; for Post-emerge Herbicidal Activity RICE: crop damage rating 0-100 at 14 days after application; for RICE phytotoxicity rating (crop damage): 14 days after application, rating scale 0-100
In short: as §1

SMILES: COc1c(Cl)cc(F)c(-n2nnn(CCCF)c2=O)c1NC(=O)COCc1ccccc1 [Compound 5-28]
- Post-emerge Herbicidal Activity AMARE ([1]; 63 g ai/ha): 100
- Post-emerge Herbicidal Activity AMARE ([1]; 250 g ai/ha): 100
- Post-emerge Herbicidal Activity ECHCG ([2]; 63 g ai/ha): 0
- Post-emerge Herbicidal Activity ECHCG ([2]; 250 g ai/ha): 50
- Post-emerge Herbicidal Activity ABUTH ([3]; 63 g ai/ha): 100
- Post-emerge Herbicidal Activity ABUTH ([3]; 250 g ai/ha): 100
- Post-emerge Herbicidal Activity CASOB ([4]; 63 g ai/ha): 90
- Post-emerge Herbicidal Activity CASOB ([4]; 250 g ai/ha): 100
- Post-emerge Herbicidal Activity DIGSA ([5]; 63 g ai/ha): 10
- Post-emerge Herbicidal Activity DIGSA ([5]; 250 g ai/ha): 30
- Post-emerge Herbicidal Activity IPOHE ([6]; 63 g ai/ha): 100
- Post-emerge Herbicidal Activity IPOHE ([6]; 250 g ai/ha): 100
- Post-emerge Herbicidal Activity SETVI ([7]; 63 g ai/ha): 10
- Post-emerge Herbicidal Activity SETVI ([7]; 250 g ai/ha): 30
- Post-emerge Herbicidal Activity CHEAL ([8]; 63 g ai/ha): 100
- Post-emerge Herbicidal Activity CHEAL ([8]; 250 g ai/ha): 100
- Pre-emerge Herbicidal Activity ECHCG ([9]; rate 63 g ai/ha): 30
- Pre-emerge Herbicidal Activity ECHCG ([9]; rate 250 g ai/ha): 60
- Pre-emerge Herbicidal Activity SORHA ([10]; rate 63 g ai/ha): 20
- Pre-emerge Herbicidal Activity SORHA ([10]; rate 250 g ai/ha): 30
- Pre-emerge Herbicidal Activity ABUTH ([11]; rate 63 g ai/ha): 100
- Pre-emerge Herbicidal Activity ABUTH ([11]; rate 250 g ai/ha): 100
- Pre-emerge Herbicidal Activity CASOB ([12]; rate 63 g ai/ha): 100
- Pre-emerge Herbicidal Activity CASOB ([12]; rate 250 g ai/ha): 100
- Pre-emerge Herbicidal Activity DIGSA ([13]; rate 63 g ai/ha): 30
- Pre-emerge Herbicidal Activity DIGSA ([13]; rate 250 g ai/ha): 90
- Pre-emerge Herbicidal Activity IPOHE ([14]; rate 63 g ai/ha): 60
- Pre-emerge Herbicidal Activity IPOHE ([14]; rate 250 g ai/ha): 100
- Pre-emerge Herbicidal Activity SETVI ([15]; rate 63 g ai/ha): 50
- Pre-emerge Herbicidal Activity SETVI ([15]; rate 250 g ai/ha): 85
- Pre-emerge Herbicidal Activity CHEAL ([16]; rate 63 g ai/ha): 100
- Pre-emerge Herbicidal Activity CHEAL ([16]; rate 250 g ai/ha): 100
- Pre-emerge Herbicidal Activity CORN ([17]; rate 63 g ai/ha): 10
- Pre-emerge Herbicidal Activity CORN ([17]; rate 250 g ai/ha): 20
- Pre-emerge Herbicidal Activity RICE ([18]; rate 63 g ai/ha): 30
- Pre-emerge Herbicidal Activity RICE ([18]; rate 250 g ai/ha): 60
- Pre-emerge Herbicidal Activity AMARE ([19]; rate 63 g ai/ha): 100
- Pre-emerge Herbicidal Activity AMARE ([19]; rate 250 g ai/ha): 100
- Post-emerge Herbicidal Activity CORN ([20]; 63 g ai/ha): 25
- Post-emerge Herbicidal Activity CORN ([20]; 250 g ai/ha): 70
- Post-emerge Herbicidal Activity RICE ([21]; 63 g ai/ha): 60
- Post-emerge Herbicidal Activity RICE ([21]; 250 g ai/ha): 70

SMILES: Cn1c(C(F)(F)F)cc(=O)n(-c2ccc(C#N)cc2NC(=O)c2ccc3ccccc3c2)c1=O [2-140]
- AMARE phytotoxicity rating ([1]; 63 g ai/ha): 100
- AMARE phytotoxicity rating ([1]; 250 g ai/ha): 100
- ECHCG phytotoxicity rating ([2]; 63 g ai/ha): 30
- ECHCG phytotoxicity rating ([2]; 250 g ai/ha): 85
- ABUTH phytotoxicity rating ([3]; 63 g ai/ha): 100
- ABUTH phytotoxicity rating ([3]; 250 g ai/ha): 100
- CASOB phytotoxicity rating ([4]; 63 g ai/ha): 100
- CASOB phytotoxicity rating ([4]; 250 g ai/ha): 100
- DIGSA phytotoxicity rating ([5]; 63 g ai/ha): 20
- DIGSA phytotoxicity rating ([5]; 250 g ai/ha): 65
- IPOHE phytotoxicity rating ([6]; 63 g ai/ha): 100
- IPOHE phytotoxicity rating ([6]; 250 g ai/ha): 100
- SETVI phytotoxicity rating ([7]; 63 g ai/ha): 40
- SETVI phytotoxicity rating ([7]; 250 g ai/ha): 60
- CHEAL phytotoxicity rating ([8]; 63 g ai/ha): 100
- CHEAL phytotoxicity rating ([8]; 250 g ai/ha): 100
- phytotoxicity rating ECHCG ([9]; 63 g ai/ha): 40
- phytotoxicity rating ECHCG ([9]; 250 g ai/ha): 80
- phytotoxicity rating SORHA ([10]; 63 g ai/ha): 10
- phytotoxicity rating SORHA ([10]; 250 g ai/ha): 60
- phytotoxicity rating ABUTH ([11]; 63 g ai/ha): 100
- phytotoxicity rating ABUTH ([11]; 250 g ai/ha): 100
- phytotoxicity rating CASOB ([12]; 63 g ai/ha): 40
- phytotoxicity rating CASOB ([12]; 250 g ai/ha): 100
- phytotoxicity rating DIGSA ([13]; 63 g ai/ha): 40
- phytotoxicity rating DIGSA ([13]; 250 g ai/ha): 95
- phytotoxicity rating IPOHE ([14]; 63 g ai/ha): 10
- phytotoxicity rating IPOHE ([14]; 250 g ai/ha): 100
- phytotoxicity rating SETVI ([15]; 63 g ai/ha): 50
- phytotoxicity rating SETVI ([15]; 250 g ai/ha): 80
- phytotoxicity rating CHEAL ([16]; 63 g ai/ha): 100
- phytotoxicity rating CHEAL ([16]; 250 g ai/ha): 100
- phytotoxicity rating CORN (crop damage) ([17]; 63 g ai/ha): 0
- phytotoxicity rating CORN (crop damage) ([17]; 250 g ai/ha): 15
- phytotoxicity rating RICE (crop damage) ([18]; 63 g ai/ha): 30
- phytotoxicity rating RICE (crop damage) ([18]; 250 g ai/ha): 85
- phytotoxicity rating AMARE ([19]; 63 g ai/ha): 100
- phytotoxicity rating AMARE ([19]; 250 g ai/ha): 100
- CORN phytotoxicity rating (crop damage) ([20]; 63 g ai/ha): 10
- CORN phytotoxicity rating (crop damage) ([20]; 250 g ai/ha): 70
- RICE phytotoxicity rating (crop damage) ([21]; 63 g ai/ha): 50
- RICE phytotoxicity rating (crop damage) ([21]; 250 g ai/ha): 80
